{
  "source": "patent US9296694B2",
  "about": "“Azacyclic compounds” (ACADIA Pharmaceuticals Inc., priority 2000, dated 2016)",
  "assay_type_in_all_cases": "in vivo",
  "key": {"[1]": {"test_system": "locomotor activity of mice (dizocilpine- or d-amphetamine-induced hyperactivity, spontaneous activity)", "test": "Locomotor activity in mice", "details": "s.c.", "source_text": "(§1) Instruments) were used for rat experiments (details on startle apparatus and measures, see Male Non-Swiss Albino mice and male Sprague-Dawley rats (Harlan Sprague-Dawley) were housed (4 mice/cage; 2 rats/cage) in rooms with temperature and humidity controlled and water and food (Harlan Teklad) freely available. Mice were kept on a 12-hr light:dark cycle, whereas rats were kept on a 12-hr reverse light:dark cycle. For locomotor and observation experiments in mice, plastic 20×20×30 cm activity cages were equipped with photocell beams (AccuScan Instruments). Startle chambers (San Diego Instruments) were used for rat experiments (for details on startle apparatus and measures, see Mansbach et al., (1988) Psychopharmacology 94:507-14).\nFor hyperactivity experiments, mice were treated with 0.3 mg/kg dizocilpine or 3.0 mg/kg d-amphetamine i.p. 15 min before the session. Five minutes after the pretreatment, mice were treated with AC-90179 s.c. and placed into the activity cages. For spontaneous activity, AC-90179 was administered alone. Locomotor data were collected during a 15 min session without habituation in a lit room. Each dose combination was tested in a separate group of animals (n=8). Distance traveled (cm) was calculated and averaged followed by ANOVA and post-hoc Dunnett's t-test comparisons."}, "[2]": {"test_system": "DOI-induced head twitches in mice", "test": "Observation for head twitches in DOI-treated mice", "source_text": "as §1\nMice were treated with 2.5 mg/kg DOI i.p. Five min later, mice were treated with AC-90179 s.c. and placed into activity cages. Ten min later, mice were observed using a repeated sampling technique. […] Each dose combination was tested in a separate group of animals (n=8) and the experimenter was blind to drug conditions. Head twitch scores were averaged followed by analysis of variance (ANOVA) and post-hoc Dunnett's t-test comparisons.\nThe effect of various compounds on head twitch behavior in mice treated with DOI was observed as described in Example 139. Animals received 0.1-30 mg/kg of the compound indicated via subcutaneous injection. MED indicates the minimum effective dose at which a statistically significant reduction in head twitching score (described above) was observed. MED=minimum effective dose in vivo."}, "[3]": {"test_system": "acoustic startle and prepulse inhibition in rats", "test": "Startle testing, prepulse inhibition (PPI) in rats", "source_text": "as §1\nRats were tested and groups (n=10) matched for levels of startle reactivity and prepulse inhibition (PPI; see Mansbach et al., (1988) Psychopharmacology 94:507-14). Two days later, test sessions started and consisted of a 5-min acclimation period with a constant background noise (65 dB), followed by 60 presentations of acoustic stimuli to measure acoustic startle responses. The 60 trials consisted of: twenty two 40-ms presentations of a 120 dB broadband pulse, ten 20-ms presentations of each prepulse intensity (68, 71, 77 dB) 100 ms prior to a 40-msec presentation of a 120 dB broadband pulse, and 8 NOSTIM trials in which no stimuli were delivered in order to assess general motor activation in the rats. Thirty min before testing, rats were treated with sterile water (s.c.), risperidone (1.0 mg/kg, i.p.), or AC-90179 (s.c.). Five min later, rats were administered DOI (0.5 mg/kg, s.c.) or 0.9% saline (s.c.). One-week later, rats were administered the same pretreatment drug or vehicle and crossed over to receive the treatment opposite to that they received the previous week. Startle magnitudes and percent PPI for the three prepulse intensities were calculated as described elsewhere (Bakshi, et al., (1994) J. Pharmacol. Exp. Ther. 271:787-94) and ANOVAs with repeated measures performed."}, "[4]": {"details": "mice, DOI 2.5 mg/kg i.p., 0.1-30 mg/kg, s.c., 10 min"}},
  "note": "Entries after “also recorded” stand apart in the source; their conditions may differ.",
  "data": [
    {"smiles": "COc1ccc(CC(=O)N(Cc2ccc(C)cc2)C2CCN(C)CC2)cc1", "note": "[Compound 50ELH27, 2-(4-Methoxyphenyl)-N-(4-methylbenzyl)-N-(1-methylpiperidin-4-yl)acetamide]", "values": [
      {"measurement": "effect on hyperactivity induced by dizocilpine", "setting": "[1]; 0.3-10 mg/kg, 10 min, dizocilpine 0.3 mg/kg i.p.", "result": "attenuated"},
      {"measurement": "dose that reduced spontaneous locomotor activity", "setting": "[1]; compound alone, only at the highest dose tested", "result": 30, "unit": "mg/kg"},
      {"measurement": "minimum effective dose against dizocilpine", "setting": "[1]; hyperactivity induced by dizocilpine 0.3 mg/kg i.p.", "result": 1, "unit": "mg/kg"},
      {"measurement": "effect on DOI-induced head-twitches", "setting": "[2]; [4]", "result": "dose-related decrease"},
      {"measurement": "minimum effective dose against DOI-induced head-twitches", "setting": "[2]; [4]", "result": 1, "unit": "mg/kg"},
      {"measurement": "effect on head twitch behavior at higher doses", "setting": "[2]; mice, DOI 2.5 mg/kg i.p., higher doses, s.c.", "result": "completely eliminating head twitch behavior"},
      {"measurement": "MED (minimum effective dose in vivo)", "setting": "[2]; statistically significant reduction in head twitching score, DOI-treated mice, 0.1-30 mg/kg subcutaneous injection", "result": 1, "unit": "mg/kg"},
      {"measurement": "effect on startle magnitude", "setting": "[3]; rats, 3-way repeated measures ANOVA", "result": "significant effect of pretreatment"},
      {"measurement": "restoration of PPI in DOI-treated rats", "setting": "[3]; rats, DOI 0.5 mg/kg s.c., AC-90179 s.c., risperidone 1.0 mg/kg i.p.", "result": "effective in restoring this disruption especially at the higher doses; also recorded: significant effects"},
      {"measurement": "effect on PPI on its own", "setting": "[3]; saline (vehicle)-treated rats, AC-90179 s.c., risperidone 1.0 mg/kg i.p.", "result": "did not affect PPI on its own; also recorded: no effect"}
    ]}
  ]
}
